# Test results: patent US20200208108A1, “INTERFERON PRIMED PLASMACYTOID DENDRITIC CELLS” (AARHUS UNIVERSITET, priority 2017, published 2020)
# Key:
# Type in all cases: cell-based, human
# HSPC-pDCs [1] = experiment: Functional type I IFN in supernatants after TLR7/TLR9 agonist stimulation (HEK-Blue IFN-α/β reporter); conditions: separate priming; TLR7 and TLR9 agonists
# Procedure: (§1) HSPC-pDCs were cultured in RPMI-1640 medium with 10% heat inactivated FCS, 600 μg/mL L-glutamine, 200 U/mL penicillin and 100 μg/mL streptomycin, but depleted for growth factors used for the cultivation process. As described in individual figure legends, medium was supplemented with IFN-β (PBL Assay Science), IFN-γ (PeproTech) or both cytokines simultaneously (IFN-β+γ). After 24 (day 21+1) or 72 (day 21+3) hours, cells were washed in warm medium, and phenotypically or functionally characterized.
# (§2) For functional characterization, cells were seeded in 96-well plates. During stimulation cells were kept in medium with 20 ng/mL IL-3. Twenty hours post stimulation supernatants were harvested and kept at −20° C. until cytokine quantifications. For phenotypic characterization, primed cells were seeded out in 48-well plates and stimulated for 24 hours before phenotypic analysis by flow cytometry.
# Bioactive functional type I IFN was quantified in supernatants using the reporter cell line HEK-Blue™ IFN-α/β (Invivogen). The cell line was maintained in DMEM+GlutaMax™-I (Gibco®, Life Technologies), supplemented with 10% heat-inactivated FCS, 100 μg/mL streptomycin and 200 U/mL penicillin, 100 μg/mL normocin (InvivoGen), 30 μg/mL blasticidin (InvivoGen) and 100 μg/mL zeocin (InvivoGen). […] SEAP activity was assessed by measuring optical density (OD) at 620 nm on a microplate reader (ELx808, BioTEK). […]
# HSPC-pDCs [2] = experiment: Phenotypic analysis of pDC-related and maturation surface markers by flow cytometry; conditions: priming from day 21, with IL-3
# Procedure: as §1, §2
# Immunophenotypical analysis was performed using flow cytometry. Briefly, 2×10^5 cells were spun down and resuspended in PBS with 0.5% BSA and 0.09% NaN3. […] Fluorescence intensities were measured on a LSR Fortessa flow cytometer (Becton Dickinson) with four lasers (405, 488, 561 and 640 nm) and 18 photomultiplier (PMT) detectors. […] Data were analyzed using FlowJo software (version 10, Tree Star, Ashland, Oreg., USA). […]
# HSPC-pDCs [3] = experiment: IL-6 in supernatants after TLR7/TLR9 agonist stimulation (ELISA); conditions: separate priming; TLR7 and TLR9 agonists
# Procedure: as §1, §2
# Protein levels of IL-6 in supernatants were evaluated using ELISA kits (Biolegend) following the manufacturers instructions.
substance,measurement,setting,value
IFN-γ: recombinant IFN-γ (PeproTech) used for priming,promotion of type I IFN response in comparison to IFN-β,HSPC-pDCs [1],less effective
same,expression levels of CD303 and CD304 on HSPC-pDCs after priming,HSPC-pDCs [2],improved
same,secretion of IL-6 by primed HSPC-pDCs,HSPC-pDCs [3],predominantly promoted
